The source of these data is patent US10604554B2, “Double-acylated GLP-1 derivatives” (Novo Nordisk A/S, priority 2012, dated 2020).

Molecules are shown by their SMILES. Read-outs that look alike come from different tables or passages of the source. Numbered stars: 1 amine (or outer) side, 2 acyl side, 3 side chain; on linkers, the order of the positions; unused ones are H or OH. Square brackets hold non-standard residues; d marks the D form. Side chains are listed from the residue outwards. Peptide text beside a SMILES is read from it. * marks the point of attachment. Decanoyl(10-(4-HOOC-PhO)) = O=C(O)c1ccc(OCCCCCCCCCC(=O)*)cc1; γGlu = O=C(O)[C@H](CCC(=O)[*:2])N[*:1]; εLys = N[C@@H](CCCCN[*:1])C(=O)[*:2]; AEEA = NCCOCCOCC(=O)O; Aib = CC(C)(N)C(=O)O

Broadly, the IC50 is the concentration that inhibits the measured activity by half. As a reminder, the EC50 is the concentration giving half of the maximal effect.

Experiment [1] deals with T1, human GLP-1 receptor (Homo sapiens, UniProt P43220).
T1 construct: expressed in transfected cells; host or cells: BHK cells, clone FCW467-12A/KZ10-1 (parent line BHKTS13), further transfected with CRE luciferase
Nature of the experiment: GLP-1 receptor binding (SPA, displacement of 125I-GLP-1). Conditions: for IC50 (high HSA): heading: Receptor binding affinity IC50. The gist of the method: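 Tracer [125I]-GLP-1(7-36)NH2 at 0.06 nM final competed on hamster stably transfected cell membranes captured by WGA SPA beads; 120 min, 30 °C, scintillation count.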
A general note: In a radioligand displacement assay an active substance lowers the binding of a labelled ligand.

The target of experiment [2] is T1, human GLP-1 receptor. Nature of the experiment: In vitro potency (CRE luciferase; whole cells). The experiment is classed as cell-based. More on the design: EC50/pM (ratio 1% HSA/0% HSA): unit not given here. The settings on record: for EC50: BHK cells; for EC50/pM (ratio 1% HSA/0% HSA): ratio of EC50 at 1% HSA to EC50 at 0% HSA. The gist of the method: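 Reporter: CRE-luciferase in BHK cells stably expressing human GLP-1R, 5×10^3 cells/well; compounds tested in buffer containing 0% or 1% HSA.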

Where [3] appears, read: 0.001% HSA (low albumin), read-out: Receptor binding affinity IC50 (low HSA).
Where [4] appears, read: Receptor binding affinity IC50 (high HSA), 2.0% HSA (high albumin).
[5] abbreviates: 0% HSA, read-out: In vitro potency (CRE luciferase) EC50 (0% HSA).
The mark [6] stands for this setting: In vitro potency (CRE luciferase) EC50 (1% HSA), 1% HSA.
Setting [7] is: In vitro potency (CRE luciferase) EC50 (0% HSA), 0% HSA.

T1 sequence (P43220 24-463): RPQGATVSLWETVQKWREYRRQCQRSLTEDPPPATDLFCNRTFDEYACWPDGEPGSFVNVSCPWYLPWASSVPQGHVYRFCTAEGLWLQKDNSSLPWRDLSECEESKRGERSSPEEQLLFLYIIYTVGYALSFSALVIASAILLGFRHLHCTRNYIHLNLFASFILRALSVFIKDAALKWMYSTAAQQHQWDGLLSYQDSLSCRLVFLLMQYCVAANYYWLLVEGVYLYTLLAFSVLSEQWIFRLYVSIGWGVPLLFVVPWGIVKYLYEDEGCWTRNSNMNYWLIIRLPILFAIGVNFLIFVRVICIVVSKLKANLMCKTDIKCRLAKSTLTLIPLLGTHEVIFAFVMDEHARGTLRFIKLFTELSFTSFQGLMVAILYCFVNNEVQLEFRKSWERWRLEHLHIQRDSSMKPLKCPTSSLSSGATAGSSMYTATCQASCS

Regarding `CC[C@H](C)[C@H](NC(=O)[C@H](Cc1ccccc1)NC(=O)[C@H](CCC(=O)O)NC(=O)[C@H](CCCCNC(=O)[C@@H](N)CCCCNC(=O)[C@@H](N)CCCCNC(=O)CC[C@H](NC(=O)CC[C@H](NC(=O)CCCCCCCCCCCCCCC(=O)O)C(=O)O)C(=O)O)NC(=O)[C@H](C)NC(=O)[C@H](C)NC(=O)[C@H](CCC(N)=O)NC(=O)CNC(=O)[C@H](CCC(=O)O)NC(=O)[C@H](CC(C)C)NC(=O)[C@H](Cc1ccc(O)cc1)NC(=O)[C@H](CO)NC(=O)[C@H](CO)NC(=O)[C@@H](NC(=O)[C@H](CC(=O)O)NC(=O)[C@H](CO)NC(=O)[C@@H](NC(=O)[C@H](Cc1ccccc1)NC(=O)[C@@H](NC(=O)CNC(=O)[C@H](CCC(=O)O)NC(=O)C(C)(C)NC(=O)[C@@H](N)Cc1c[nH]cn1)[C@@H](C)O)[C@@H](C)O)C(C)C)C(=O)N[C@@H](C)C(=O)N[C@@H](Cc1c[nH]c2ccccc12)C(=O)N[C@@H](CC(C)C)C(=O)N[C@H](C(=O)N[C@@H](CCCNC(=N)N)C(=O)NCC(=O)N[C@@H](CCCNC(=N)N)C(=O)N[C@@H](CCCCNC(=O)[C@@H](N)CCCCNC(=O)[C@@H](N)CCCCNC(=O)CC[C@H](NC(=O)CC[C@H](NC(=O)CCCCCCCCCCCCCCC(=O)O)C(=O)O)C(=O)O)C(=O)O)C(C)C` [Example 12, N^ε26-[(2S)-2-amino-6-[[(2S)-2-amino-6-[[(4S)-4-carboxy-4-[[(4S)-4-carboxy-4-(15-carboxypentadecanoylamino)butanoyl]amino]butanoyl]amino]hexanoyl]amino]hexanoyl], N^ε37-[(2S)-2-amino-6-[[(2S)-2-amino-6-[[(4S)-4-carboxy-4-[[(4S)-4-carboxy-4-(15-carboxypentadecanoylamino)butanoyl]amino]butanoyl]amino]hexanoyl]amino]hexanoyl]-[Aib^8,Arg^34, Lys^37]-GLP-1-(7-37)-peptide], the half-maximal inhibitory concentration (IC50) at human GLP-1 receptor [1] (setting [3]) was 330 pM. The IC50 (high HSA) on human GLP-1 receptor [1] (setting [4]) came to 222000 pM. For the same compound, the EC50 on human GLP-1 receptor [2] (setting [5]) stood at 5.5 pM; on human GLP-1 receptor [2] (setting [6]), 1150 pM. The “EC50/pM (ratio 1% HSA/0% HSA)” value at human GLP-1 receptor [2] was found to be 194.
For `CC[C@H](C)[C@H](NC(=O)[C@H](Cc1ccccc1)NC(=O)[C@H](CCC(=O)O)NC(=O)[C@H](CCCCNC(=O)[C@@H](N)CCCCNC(=O)COCCOCCNC(=O)COCCOCCNC(=O)CC[C@H](NC(=O)CCCCCCCCCCCCC(=O)O)C(=O)O)NC(=O)[C@H](C)NC(=O)[C@H](C)NC(=O)[C@H](CCC(N)=O)NC(=O)CNC(=O)[C@H](CCC(=O)O)NC(=O)[C@H](CC(C)C)NC(=O)[C@H](Cc1ccc(O)cc1)NC(=O)[C@H](CO)NC(=O)[C@H](CO)NC(=O)[C@@H](NC(=O)[C@H](CC(=O)O)NC(=O)[C@H](CO)NC(=O)[C@@H](NC(=O)[C@H](Cc1ccccc1)NC(=O)[C@@H](NC(=O)CNC(=O)[C@H](CCC(=O)O)NC(=O)C(C)(C)NC(=O)[C@@H](N)Cc1c[nH]cn1)[C@@H](C)O)[C@@H](C)O)C(C)C)C(=O)N[C@@H](C)C(=O)N[C@@H](Cc1c[nH]c2ccccc12)C(=O)N[C@@H](CC(C)C)C(=O)N[C@H](C(=O)N[C@@H](CCCNC(=N)N)C(=O)NCC(=O)N[C@@H](CCCNC(=N)N)C(=O)N[C@@H](CCCCNC(=O)[C@@H](N)CCCCNC(=O)COCCOCCNC(=O)COCCOCCNC(=O)CC[C@H](NC(=O)CCCCCCCCCCCCC(=O)O)C(=O)O)C(=O)O)C(C)C` [Example 19, N^ε26-[(2S)-2-amino-6-[[2-[2-[2-[[2-[2-[2-[[(4S)-4-carboxy-4-(13-carboxytridecanoylamino)butanoyl]amino]ethoxy]ethoxy]acetyl]amino]ethoxy]ethoxy]acetyl]amino]hexanoyl], N^ε37-[(2S)-2-amino-6-[[2-[2-[2-[[2-[2-[2-[[(4S)-4-carboxy-4-(13-carboxytridecanoylamino)butanoyl]amino]ethoxy]ethoxy]acetyl]amino]ethoxy]ethoxy]acetyl]amino]hexanoyl]-[Aib^8,Arg^34,Lys^37]-GLP-1-(7-37)-peptide], the IC50 on human GLP-1 receptor [1] (setting [3]) is 770 pM. Also, the IC50 (high HSA) on human GLP-1 receptor [1] (setting [4]) was 147000 pM. In addition, the concentration for a half-maximal effect (EC50) was 25 pM at human GLP-1 receptor [2] (setting [5]) and 51 pM at human GLP-1 receptor [2] (setting [6]). In addition, the “EC50/pM (ratio 1% HSA/0% HSA)” value on human GLP-1 receptor [2] came out at 2.5.
As for `CC[C@H](C)[C@H](NC(=O)[C@H](Cc1ccccc1)NC(=O)[C@H](CCC(=O)O)NC(=O)[C@H](CCCCNC(=O)[C@@H](N)CCCCNC(=O)COCCOCCNC(=O)COCCOCCNC(=O)CC[C@H](NC(=O)CCCCCCCCCCCCCCC(=O)O)C(=O)O)NC(=O)[C@H](C)NC(=O)[C@H](C)NC(=O)[C@H](CCC(N)=O)NC(=O)CNC(=O)[C@H](CCC(=O)O)NC(=O)[C@H](CC(C)C)NC(=O)[C@H](Cc1ccc(O)cc1)NC(=O)[C@H](CO)NC(=O)[C@H](CO)NC(=O)[C@@H](NC(=O)[C@H](CC(=O)O)NC(=O)[C@H](CO)NC(=O)[C@@H](NC(=O)[C@H](Cc1ccccc1)NC(=O)[C@@H](NC(=O)CNC(=O)[C@H](CCC(=O)O)NC(=O)C(C)(C)NC(=O)[C@@H](N)Cc1c[nH]cn1)[C@@H](C)O)[C@@H](C)O)C(C)C)C(=O)N[C@@H](C)C(=O)N[C@@H](Cc1c[nH]c2ccccc12)C(=O)N[C@@H](CC(C)C)C(=O)N[C@H](C(=O)N[C@@H](CCCNC(=N)N)C(=O)NCC(=O)N[C@@H](CCCNC(=N)N)C(=O)N[C@@H](CCCCNC(=O)[C@@H](N)CCCCNC(=O)COCCOCCNC(=O)COCCOCCNC(=O)CC[C@H](NC(=O)CCCCCCCCCCCCCCC(=O)O)C(=O)O)C(=O)O)C(C)C` [Example 10, N^ε26-[(2S)-2-amino-6-[[2-[2-[2-[[2-[2-[2-[[(4S)-4-carboxy-4-(15-carboxypentadecanoylamino)butanoyl]amino]ethoxy]ethoxy]acetyl]amino]ethoxy]ethoxy]acetyl]amino]hexanoyl], N^ε37-[(2S)-2-amino-6-[[2-[2-[2-[[2-[2-[2-[[(4S)-4-carboxy-4-(15-carboxypentadecanoylamino)butanoyl]amino]ethoxy]ethoxy]acetyl]amino]ethoxy]ethoxy]acetyl]amino]hexanoyl]-[Aib^8,Arg^34,Lys^37]-GLP-1-(7-37)-peptide], at human GLP-1 receptor [1] (setting [3]), the IC50 was found to be 840 pM. Further, the EC50 at human GLP-1 receptor [2] (setting [5]) is 8 pM; on human GLP-1 receptor [2] (setting [6]), 3630 pM.
In the case of `CC[C@H](C)[C@H](NC(=O)[C@H](Cc1ccccc1)NC(=O)[C@H](CCC(=O)O)NC(=O)[C@H](CCCCNC(=O)[C@@H](N)CCCCNC(=O)COCCOCCNC(=O)COCCOCCNC(=O)CC[C@H](NC(=O)CCCCCCCCCOc1ccc(C(=O)O)cc1)C(=O)O)NC(=O)[C@H](C)NC(=O)[C@H](C)NC(=O)[C@H](CCC(N)=O)NC(=O)[C@H](CCC(=O)O)NC(=O)[C@H](CCC(=O)O)NC(=O)[C@H](CC(C)C)NC(=O)[C@H](Cc1ccc(O)cc1)NC(=O)[C@H](CO)NC(=O)[C@H](CO)NC(=O)[C@@H](NC(=O)[C@H](CC(=O)O)NC(=O)[C@H](CO)NC(=O)[C@@H](NC(=O)[C@H](Cc1ccccc1)NC(=O)[C@@H](NC(=O)CNC(=O)[C@H](CCC(=O)O)NC(=O)C(C)(C)NC(=O)[C@@H](N)Cc1c[nH]cn1)[C@@H](C)O)[C@@H](C)O)C(C)C)C(=O)N[C@@H](C)C(=O)N[C@@H](Cc1c[nH]c2ccccc12)C(=O)N[C@@H](CC(C)C)C(=O)N[C@H](C(=O)N[C@@H](CCC(N)=O)C(=O)NCC(=O)N[C@@H](CCCNC(=N)N)C(=O)N[C@@H](CCCCNC(=O)[C@@H](N)CCCCNC(=O)COCCOCCNC(=O)COCCOCCNC(=O)CC[C@H](NC(=O)CCCCCCCCCOc1ccc(C(=O)O)cc1)C(=O)O)C(=O)O)C(C)C` [Example 18] (H-H[Aib]EGTFTSDVSSYLEEQAAK([εLys-AEEA-AEEA-γGlu-Decanoyl(10-(4-HOOC-PhO))])EFIAWLVQGRK([εLys-AEEA-AEEA-γGlu-Decanoyl(10-(4-HOOC-PhO))])-OH; N-terminus and C-terminus assumed), the half-maximal inhibitory concentration (IC50) at human GLP-1 receptor [1] (setting [4]) was found to be 159000 pM; at human GLP-1 receptor [1] (Receptor binding affinity IC50 (low HSA), 0.001% HSA (low albumin)), 990 pM. Moreover, the results for the 50% effective concentration (EC50) on human GLP-1 receptor [2] (setting [7]) and at human GLP-1 receptor [2] (setting [6]) were 12 pM and 79 pM, respectively. In addition, the “EC50/pM (ratio 1% HSA/0% HSA)” value at human GLP-1 receptor [2] is reported as 6.9.
Regarding `CC[C@H](C)[C@H](NC(=O)[C@H](Cc1ccccc1)NC(=O)[C@H](CCC(=O)O)NC(=O)[C@H](CCCCNC(=O)[C@@H](N)CCCCNC(=O)[C@@H](N)CCCCNC(=O)CC[C@H](NC(=O)CCCCCCCCCOc1ccc(C(=O)O)cc1)C(=O)O)NC(=O)[C@H](C)NC(=O)[C@H](C)NC(=O)[C@H](CCC(N)=O)NC(=O)CNC(=O)[C@H](CCC(=O)O)NC(=O)[C@H](CC(C)C)NC(=O)[C@H](Cc1ccc(O)cc1)NC(=O)[C@H](CO)NC(=O)[C@H](CO)NC(=O)[C@@H](NC(=O)[C@H](CC(=O)O)NC(=O)[C@H](CO)NC(=O)[C@@H](NC(=O)[C@H](Cc1ccccc1)NC(=O)[C@@H](NC(=O)CNC(=O)[C@H](CCC(=O)O)NC(=O)C(C)(C)NC(=O)[C@@H](N)Cc1c[nH]cn1)[C@@H](C)O)[C@@H](C)O)C(C)C)C(=O)N[C@@H](C)C(=O)N[C@@H](Cc1c[nH]c2ccccc12)C(=O)N[C@@H](CC(C)C)C(=O)N[C@H](C(=O)N[C@@H](CCCNC(=N)N)C(=O)NCC(=O)N[C@@H](CCCNC(=N)N)C(=O)N[C@@H](CCCCNC(=O)[C@@H](N)CCCCNC(=O)[C@@H](N)CCCCNC(=O)CC[C@H](NC(=O)CCCCCCCCCOc1ccc(C(=O)O)cc1)C(=O)O)C(=O)O)C(C)C` [Example 1, N^ε26-[(2S)-2-amino-6-[[(2S)-2-amino-6-[[(4S)-4-carboxy-4-[10-(4-carboxyphenoxy)decanoylamino]butanoyl]amino]hexanoyl]amino]hexanoyl], N^ε37-[(2S)-2-amino-6-[[(2S)-2-amino-6-[[(4S)-4-carboxy-4-[10-(4-carboxyphenoxy)decanoylamino]butanoyl]amino]hexanoyl]amino]hexanoyl]-[Aib^8, Arg^34,Lys^37]-GLP-1-(7-37)-peptide], the half-inhibitory concentration (IC50) at human GLP-1 receptor [1] (setting [4]) was 13000 pM. For the same compound, the EC50 worked out at 4 pM on human GLP-1 receptor [2] (setting [7]) and 57 pM at human GLP-1 receptor [2] (setting [6]).
